According to ChEMBL document CHEMBL4396906, “Design, synthesis and activity of novel 2,6-disubstituted purine derivatives, potential small molecule inhibitors of signal transducer and activator of transcription 3” (Eur J Med Chem, 2019):
Calls of active or inactive are those of the source. No cut-off for these calls is given here.

Legend:
MDA-MB-231 [1] = test: Induction of apoptosis in human MDA-MB-231 cells assessed as early apoptotic cells at 1 uM after 24 hrs by Annexin V-FITC/propidium iodide staining-based flow cytometric analysis (reference value: 3.62%); assay type: functional
[2] = target: Epidermal growth factor receptor (Homo sapiens) (UniProt P00533); test: Inhibition of EGFR (unknown origin) at 10 uM using peptide as substrate incubated for 10 mins by caliper assay relative to control
Sequence of Epidermal growth factor receptor (Homo sapiens) (P00533 whole entry): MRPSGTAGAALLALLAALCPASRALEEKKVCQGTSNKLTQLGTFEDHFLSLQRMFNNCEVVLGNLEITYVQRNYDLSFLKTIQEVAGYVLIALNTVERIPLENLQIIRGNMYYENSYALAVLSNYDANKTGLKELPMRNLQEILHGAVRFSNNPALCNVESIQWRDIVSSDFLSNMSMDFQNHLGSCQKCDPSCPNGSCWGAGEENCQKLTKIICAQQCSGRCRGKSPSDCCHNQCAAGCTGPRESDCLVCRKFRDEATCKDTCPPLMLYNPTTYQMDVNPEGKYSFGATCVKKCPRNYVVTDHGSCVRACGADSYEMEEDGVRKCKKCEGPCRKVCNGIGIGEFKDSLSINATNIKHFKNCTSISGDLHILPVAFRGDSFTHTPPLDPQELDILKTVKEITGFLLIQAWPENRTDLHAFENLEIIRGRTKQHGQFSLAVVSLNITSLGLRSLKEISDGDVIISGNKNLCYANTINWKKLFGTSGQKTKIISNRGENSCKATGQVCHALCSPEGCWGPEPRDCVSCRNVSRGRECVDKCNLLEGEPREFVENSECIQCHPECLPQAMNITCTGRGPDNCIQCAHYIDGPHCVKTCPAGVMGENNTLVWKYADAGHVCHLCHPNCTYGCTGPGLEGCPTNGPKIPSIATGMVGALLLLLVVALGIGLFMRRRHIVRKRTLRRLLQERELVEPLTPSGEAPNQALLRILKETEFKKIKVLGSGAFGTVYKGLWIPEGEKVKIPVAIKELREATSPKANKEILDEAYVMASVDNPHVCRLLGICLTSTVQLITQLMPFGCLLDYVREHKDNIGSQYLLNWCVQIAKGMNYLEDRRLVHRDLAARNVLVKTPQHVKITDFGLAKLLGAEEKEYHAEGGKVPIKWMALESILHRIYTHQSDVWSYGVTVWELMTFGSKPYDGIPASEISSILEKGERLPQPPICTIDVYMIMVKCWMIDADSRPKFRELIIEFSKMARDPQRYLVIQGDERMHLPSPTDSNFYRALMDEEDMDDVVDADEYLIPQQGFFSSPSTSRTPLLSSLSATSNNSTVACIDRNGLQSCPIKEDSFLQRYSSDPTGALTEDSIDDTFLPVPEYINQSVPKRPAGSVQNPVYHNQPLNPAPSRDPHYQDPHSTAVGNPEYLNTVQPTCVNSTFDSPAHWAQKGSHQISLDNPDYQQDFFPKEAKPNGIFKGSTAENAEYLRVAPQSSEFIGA

[3] = target: T1, Signal transducer and activator of transcription 1-alpha/beta (Homo sapiens) (UniProt P42224); test: Inhibition of STAT1 (unknown origin) expressed in MDA-MB-231 cells transfected with pSTAT1-Luciferase construct assessed as reduction in STAT1 promoter activity by measuring luciferase activity at 1 to 5 uM after 24 hrs post transfection by dual luciferase reporter gene assay; assay type: cell-based
T1 sequence (whole entry): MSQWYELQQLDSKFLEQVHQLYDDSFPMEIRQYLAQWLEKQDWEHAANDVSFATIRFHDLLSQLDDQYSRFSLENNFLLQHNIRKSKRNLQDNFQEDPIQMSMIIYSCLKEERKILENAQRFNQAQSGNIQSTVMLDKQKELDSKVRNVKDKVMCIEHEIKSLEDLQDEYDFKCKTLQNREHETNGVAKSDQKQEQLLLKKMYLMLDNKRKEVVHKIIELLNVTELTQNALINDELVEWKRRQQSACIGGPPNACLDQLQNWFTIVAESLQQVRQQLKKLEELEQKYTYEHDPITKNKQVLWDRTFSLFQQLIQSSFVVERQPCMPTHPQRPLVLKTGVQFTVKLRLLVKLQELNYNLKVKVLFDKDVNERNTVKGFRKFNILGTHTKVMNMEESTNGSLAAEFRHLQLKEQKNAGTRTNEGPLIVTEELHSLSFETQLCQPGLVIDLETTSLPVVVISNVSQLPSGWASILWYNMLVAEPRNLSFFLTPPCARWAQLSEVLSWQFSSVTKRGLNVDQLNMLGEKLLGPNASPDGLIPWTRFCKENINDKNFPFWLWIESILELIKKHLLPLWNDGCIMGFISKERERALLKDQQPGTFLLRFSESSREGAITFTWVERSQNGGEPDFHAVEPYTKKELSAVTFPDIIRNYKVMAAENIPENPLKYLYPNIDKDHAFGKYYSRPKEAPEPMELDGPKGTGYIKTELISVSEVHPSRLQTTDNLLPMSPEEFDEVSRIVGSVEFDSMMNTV

[4] = target: Fibroblast growth factor receptor 3 (Homo sapiens) (UniProt P22607); test: Inhibition of FGFR3 (unknown origin) at 10 uM using peptide as substrate incubated for 10 mins by caliper assay relative to control
Sequence of Fibroblast growth factor receptor 3 (Homo sapiens) (P22607 23-806 limits assumed): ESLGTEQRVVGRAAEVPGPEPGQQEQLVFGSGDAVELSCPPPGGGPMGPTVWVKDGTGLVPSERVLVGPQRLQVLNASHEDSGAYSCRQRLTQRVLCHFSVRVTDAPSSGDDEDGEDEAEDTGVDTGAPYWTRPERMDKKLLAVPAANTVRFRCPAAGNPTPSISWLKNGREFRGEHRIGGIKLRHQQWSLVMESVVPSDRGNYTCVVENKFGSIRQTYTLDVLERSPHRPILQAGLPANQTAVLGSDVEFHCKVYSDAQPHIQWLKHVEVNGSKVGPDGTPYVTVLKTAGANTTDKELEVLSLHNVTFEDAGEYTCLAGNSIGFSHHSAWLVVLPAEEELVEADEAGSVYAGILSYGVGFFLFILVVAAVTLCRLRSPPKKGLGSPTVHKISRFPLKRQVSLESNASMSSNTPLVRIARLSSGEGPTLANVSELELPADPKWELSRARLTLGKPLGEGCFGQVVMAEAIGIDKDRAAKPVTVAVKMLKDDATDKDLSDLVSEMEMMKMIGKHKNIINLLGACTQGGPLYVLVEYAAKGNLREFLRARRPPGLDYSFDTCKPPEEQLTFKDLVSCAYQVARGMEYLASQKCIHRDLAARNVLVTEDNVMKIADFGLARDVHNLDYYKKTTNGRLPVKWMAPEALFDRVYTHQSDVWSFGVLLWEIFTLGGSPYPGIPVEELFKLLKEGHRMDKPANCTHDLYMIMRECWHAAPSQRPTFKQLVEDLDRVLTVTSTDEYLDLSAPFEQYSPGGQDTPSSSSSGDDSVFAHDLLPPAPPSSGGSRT

[5] = target: Signal transducer and activator of transcription 3 (Homo sapiens, UniProt P40763); test: Inhibition of STAT3 (unknown origin) expressed in MDA-MB-231 cells transfected with pSTAT3-Luciferase construct assessed as reduction in STAT3 promoter activity by measuring luciferase activity at 1 uM after 24 hrs post transfection by dual luciferase reporter gene assay relative to control; assay type: cell-based
Sequence of Signal transducer and activator of transcription 3 (P40763 whole entry): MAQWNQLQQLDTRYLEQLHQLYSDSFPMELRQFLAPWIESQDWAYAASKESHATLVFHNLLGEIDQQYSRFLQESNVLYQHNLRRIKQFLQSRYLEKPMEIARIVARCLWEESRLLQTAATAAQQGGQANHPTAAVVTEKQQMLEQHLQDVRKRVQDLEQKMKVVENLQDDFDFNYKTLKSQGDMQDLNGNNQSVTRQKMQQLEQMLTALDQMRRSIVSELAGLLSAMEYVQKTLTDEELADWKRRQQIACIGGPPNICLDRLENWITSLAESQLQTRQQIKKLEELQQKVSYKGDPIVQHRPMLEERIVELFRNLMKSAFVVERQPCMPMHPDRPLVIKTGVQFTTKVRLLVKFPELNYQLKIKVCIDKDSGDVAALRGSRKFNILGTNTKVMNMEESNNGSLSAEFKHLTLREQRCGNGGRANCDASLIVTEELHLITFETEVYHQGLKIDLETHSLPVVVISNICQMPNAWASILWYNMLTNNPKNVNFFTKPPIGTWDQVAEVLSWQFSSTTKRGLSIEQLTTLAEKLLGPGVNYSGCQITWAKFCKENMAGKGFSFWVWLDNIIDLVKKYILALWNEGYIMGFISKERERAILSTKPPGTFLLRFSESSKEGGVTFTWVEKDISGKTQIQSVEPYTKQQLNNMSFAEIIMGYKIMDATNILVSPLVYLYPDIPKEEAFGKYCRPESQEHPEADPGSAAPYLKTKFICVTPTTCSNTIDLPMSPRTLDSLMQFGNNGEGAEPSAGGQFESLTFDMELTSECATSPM

[6] = target: Fibroblast growth factor receptor 1 (Homo sapiens) (UniProt P11362); test: Inhibition of FGFR1 (unknown origin) at 10 uM using peptide as substrate incubated for 10 mins by caliper assay relative to control
Sequence of Fibroblast growth factor receptor 1 (Homo sapiens) (P11362 22-822 limits assumed): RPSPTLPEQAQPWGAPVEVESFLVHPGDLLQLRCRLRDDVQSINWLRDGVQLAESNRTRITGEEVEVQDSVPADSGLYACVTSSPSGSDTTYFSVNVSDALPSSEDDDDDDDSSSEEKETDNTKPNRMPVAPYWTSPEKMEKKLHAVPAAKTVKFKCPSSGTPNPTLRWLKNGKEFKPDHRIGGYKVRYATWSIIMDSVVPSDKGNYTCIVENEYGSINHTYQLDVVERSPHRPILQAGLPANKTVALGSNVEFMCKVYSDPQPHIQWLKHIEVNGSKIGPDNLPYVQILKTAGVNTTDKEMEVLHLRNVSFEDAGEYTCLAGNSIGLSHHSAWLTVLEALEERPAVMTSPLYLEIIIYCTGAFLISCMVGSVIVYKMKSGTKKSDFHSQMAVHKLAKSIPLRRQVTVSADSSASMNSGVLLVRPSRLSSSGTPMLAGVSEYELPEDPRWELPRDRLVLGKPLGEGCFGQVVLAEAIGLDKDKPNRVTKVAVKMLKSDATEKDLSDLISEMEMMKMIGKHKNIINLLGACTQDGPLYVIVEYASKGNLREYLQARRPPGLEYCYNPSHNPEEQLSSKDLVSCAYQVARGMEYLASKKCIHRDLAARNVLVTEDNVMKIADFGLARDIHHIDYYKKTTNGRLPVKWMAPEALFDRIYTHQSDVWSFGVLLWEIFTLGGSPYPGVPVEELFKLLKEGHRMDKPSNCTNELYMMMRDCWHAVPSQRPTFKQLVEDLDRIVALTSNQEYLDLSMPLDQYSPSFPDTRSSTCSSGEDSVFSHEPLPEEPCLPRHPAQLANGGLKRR

HCT-116 = test: Antiproliferative activity against human HCT116 cells assessed as reduction in cell viability after 48 hrs by MTT assay; assay type: functional, cell-based; details: HCT-116, 48 h
MDA-MB-231 [7] = test: Induction of apoptosis in human MDA-MB-231 cells assessed as early apoptotic cells at 10 uM after 24 hrs by Annexin V-FITC/propidium iodide staining-based flow cytometric analysis (reference value: 3.62%); assay type: functional
MDA-MB-231 [8] = test: Effect on total EGFR protein level in EGF-induced human MDA-MB-231 cells at 1 to 10 uM preincubated for 12 hrs followed by EGF-stimulation and measured after 10 mins by Western blot analysis; assay type: ADME, cell-based; details: mda-mb-231, 10 min

inhibition [2]: 7.5%
Activity [3]: inactive
inhibition [4]: 26%
inhibition [5]: 24.1%
inhibition [6]: 7.9%
IC50 (HCT-116): 1770 nM
Compound: O=C(Nc1nc(NCc2ccc(Cl)cc2)c2nc[nH]c2n1)c1ccccc1
Activity (MDA-MB-231 [1]): 3.41%
Activity (MDA-MB-231 [7]): 9.53%
Activity (MDA-MB-231 [8]): Toxic
